Results published in patent publication US9499478B2, “Substituted cyclopentanes for inducing hair growth” (Allergan, Inc., priority 2011, dated 2016).

Tests used:
[1] = Dermal tolerability in rats; type: in vivo; conditions: female rats, 3 mg/kg/day daily for 8 days; for change in food consumption or body weight gain (in words): IVb decreases not statistically significant
Description: Experimental Design. Female rats were administered either vehicle or one of Cmpds IVa, IIIb, or IVb daily for 8 days. The administered dose was 3 mg/kg/day, at a concentration of 3 mg/mL. Observed data were body weight, viability, food consumption, and dermal observation (skin reaction grading), as known in the art. The vehicle was Formulation A. See Table 1 above.

[2] = microAmes mutagenesis screen; type: cell-based; conditions: with or without metabolic activation
Source text: Experimental Design. Cmpds IVa, IIIb, and IVb were subjected to the microAmes screen, as known in the art.

[3] = tested on: mouse model of hair regrowth; assay: Piliation studies (mouse model of hair regrowth); type: in vivo, mice
Description: Experimental Design. C57Black/6J, 7-week old female mice (n=10) were employed in piliation studies. Dorsal hair was shaved (area ˜2 cm×4 cm). Dosing of active agent was once per day (QD) by topical administration for 14 days. Observations were conducted for 42-days to determine onset of new hair growth and day of hair growth completion. Compounds were formulated as either a) 50% propylene glycol, 30% ethanol, 20% water, or b) the formulation of Formulation A described above. The experiments reported for FIGS. 4A-4B, 5A-5B, 6A-6B, 8A-8B, and 9A-9B were conducted using a vehicle with formulation of 50% propylene glycol, 30% ethanol, 20% water. The experiments reported for FIGS. 7A-7B were conducted using a vehicle of Formulation A described above.
Results. For each of FIGS. 4A, 5A, 6A, 7A, 8A and 9A, the histograms depict the day of onset of hair growth. For each of FIGS. 4B, 5B, 6B, 7B, 8B and 9B, the histograms depict the day achieving full hair growth.

[4] = tested on: mouse skin; assay: Pathology assessment of mouse hair regrowth model; type: in vivo, mice; conditions: histology, 0.03%; vehicle control still in growth phase
Source text: Experimental Design. Histological samples from test subjects employed in the studies described in Example 12 were obtained for pathology assessment.

[5] = Pharmacokinetic assessment of mouse hair regrowth model (blood and skin); type: in vivo, mice; conditions: 0.03% dermal daily, all measured time points, LC/MS-MS
Description: Experimental Design. Female C57BL/6J mice (n=2) were assayed per time point per treatment group. Treatment groups: (1) vehicle; (2) 0.03% Cmpd IVa; (3) 0.03% Cmpd IIIb; (4) 0.03% Cmpd IVb; (5) 0.03% bimatoprost. Treatment dosing: dermal daily application of ˜60 uL test compound solution. Blood and skin pharmacokinetic time points were obtained at day 1 (1, 4, 8 and 24-hrs post-dose); day 2 (24-hrs post-dose); day 14 (24-hrs post-dose); and day 42 (28 days post day 14 dose). Bioanalysis employed LC/MS-MS.

[6] = In vitro human skin penetration, Franz diffusion chamber; type: in vitro ADME; conditions: for conversion to bimatoprost in the receptor chamber solution / Percentage Dose Applied, Receptor Chamber Solution, Prodrug / Percentage Dose Applied, Upper ⅓ Dermis, Prodrug: 0.03% in Formulation A; for Percentage Dose Applied, Receptor Chamber Solution, Prodrug / Percentage Dose Applied, Upper ⅓ Dermis, Prodrug: applied agent; for Percentage Dose Applied, Upper ⅓ Dermis, Prodrug: dermis at 48 hrs; for conversion to bimatoprost in skin layers: SC/Epi/Dermis layers
Source text: Experimental Design. Test material: Dermatomed ex vivo human cadaver posterior trunk skin on 1.0 cm^2 Franz diffusion chamber as known in the art. Test size: 3 skin donors (obtained from New York Firefighters Skin Bank), 3 replicates per donor per formulation. Test formulations: 0.03% active agent (Cmpd IVa, Cmpd IIIb, Cmpd IVb) in Formulation A; control formulation: bimatoprost at 0.03% in Formulation A. Dosing regimen: receptor fluid at 2, 4, 24, and 48 hrs; SC/epidermis and dermis at 48 hrs. Sample analysis: LC/MS-MS to detect bimatoprost and Cmpds IVa, IIIb and IVb.

[7] = MALDI-MS imaging of compound distribution in mouse skin; type: in vivo
Description: Rationale. In order to determine the penetration, accumulation and/or differential distribution of bimatoprost and compounds disclosed herein upon dermal administration, MALDI-MS (matrix assisted laser desorption ionization mass spectroscopy) imaging was conducted on explanted samples of mouse skin after topical dermal administration.
Experimental Design. MALDI-MS imaging was conducted on mouse skin strips after administration of bimatoprost or compound disclosed herein once daily for 3 days. Samples of mouse skin were recovered 4 hr after day-3 dosing of compound. Dermal administration was conducted with vehicle, 0.03% bimatoprost, 3% bimatoprost, 0.03% Cmpd IVa, and 3% Cmpd IVa.
FIG. 16A depicts a typical explanted sample of mouse skin for these studies, wherein Cmpd IVa was applied via dermal administration. FIG. 16B depicts the result of MALDI-MS imaging. The intensity of each pixel within FIG. 16B reflects the concentration of Cmpd IVa at the corresponding point in the image depicted in FIG. 16A. FIG. 16C depicts a representative mass spectrum, corresponding to the region of FIG. 16B indicated by the white circle within FIG. 16B. Accordingly, each pixel of the image of FIG. 16B has an associated mass spectrum, providing the amounts of bimatoprost or other administered compound or metabolite thereof.

CCNC(=O)CCC/C=C\C[C@@H]1[C@@H](/C=C/[C@@H](O)CCc2ccccc2)[C@H](OC(=O)CC)C[C@@H]1O [Cmpd IIIb, 11-propionyl bimatoprost]
Body Weight Gain, Mean ± SD [1]: 10.0 ± 6.1 g
Food Consumption, Mean ± SD [1]: 22.8 ± 1.36 g
change in food consumption or body weight gain (in words) [1]: no significant change
mutagenicity [2]: not mutagenic
pharmacological efficacy relative to bimatoprost ([3]; vehicle Formulation A): approximately equivalent efficacy
hair cycle phase at day-42 [4]: returned to the resting phase
level in the systemic circulation [5]: most undetectable
conversion to bimatoprost in the receptor chamber solution [6]: observed to convert to bimatoprost
Percentage Dose Applied, Receptor Chamber Solution, Prodrug [6]: 0.8%
Percentage Dose Applied, Upper ⅓ Dermis, Prodrug [6]: 2.1%
conversion to bimatoprost in skin layers [6]: converted to bimatoprost

CCNC(=O)CCC/C=C\C[C@@H]1[C@@H](/C=C/[C@H](CCc2ccccc2)OC(C)=O)[C@H](O)C[C@@H]1O [Cmpd IVa, 15-acetyl-bimatoprost]
Body Weight Gain, Mean ± SD [1]: 9.0 ± 3.0 g
Food Consumption, Mean ± SD [1]: 21.14 ± 1.08 g
change in food consumption or body weight gain (in words) [1]: no significant change
mutagenicity [2]: not mutagenic
effectiveness of 0.03% compound compared to 0.1% to 0.3% bimatoprost ([3]; 0.03% Cmpd IVa): approximately equally effective
pharmacological efficacy relative to bimatoprost ([3]; vehicle 50% propylene glycol, 30% ethanol, 20% water): greater than bimatoprost
pharmacological efficacy relative to bimatoprost ([3]; vehicle Formulation A): greater than bimatoprost
hair cycle phase at day-42 [4]: returned to the resting phase
level in the systemic circulation [5]: most undetectable
conversion to bimatoprost in the receptor chamber solution [6]: observed to convert to bimatoprost
Percentage Dose Applied, Receptor Chamber Solution, Prodrug [6]: 4.3%
Percentage Dose Applied, Upper ⅓ Dermis, Prodrug [6]: 3.8%
conversion to bimatoprost in skin layers [6]: converted to bimatoprost
skin penetration of compound compared with bimatoprost ([7]; 3.0% topical dermal administration each): similar
detectability of compound in mouse skin by MALDI-MS imaging ([7]; after topical dermal administration at 0.03%): detectable

CCNC(=O)CCC/C=C\C[C@@H]1[C@@H](/C=C/[C@H](CCc2ccccc2)OC(=O)CC)[C@H](O)C[C@@H]1O [Cmpd IVb, 15-propionyl-bimatoprost]
Body Weight Gain, Mean ± SD [1]: 0.3 ± 6.7 g
Food Consumption, Mean ± SD [1]: 19.19 ± 1.32 g
change in food consumption or body weight gain (in words) [1]: decreases in both food consumption and body weight gain
mutagenicity [2]: not mutagenic
activity in the time required to regain full hair growth ([3]; among compounds tested): best activity
pharmacological efficacy relative to bimatoprost ([3]; vehicle Formulation A): approximately equivalent efficacy
hair cycle phase at day-42 [4]: returned to the resting phase
level in the systemic circulation [5]: most undetectable
conversion to bimatoprost in the receptor chamber solution [6]: observed to convert to bimatoprost
Percentage Dose Applied, Receptor Chamber Solution, Prodrug [6]: 2.1%
Percentage Dose Applied, Upper ⅓ Dermis, Prodrug [6]: 1.9%
conversion to bimatoprost in skin layers [6]: converted to bimatoprost

CCNC(=O)CCC/C=C\C[C@@H]1[C@@H](/C=C/[C@@H](O)CCc2ccccc2)[C@H](O)C[C@@H]1O [bimatoprost, (Z)-7-((1R,2R,3R,5S)-3,5-dihydroxy-2-((S,E)-3-hydroxy-5-phenylpent-1-enyl)cyclopentyl)-N-ethylhept-5-enamide, reference compound]
hair cycle phase at day-42 [4]: returned to the resting phase
level in the systemic circulation [5]: most undetectable
Percentage Dose Applied, Receptor Chamber Solution, Prodrug [6]: 1.1%
Percentage Dose Applied, Upper ⅓ Dermis, Prodrug [6]: 7.0%
